Key:
[1] = test system: Human retinal pigment epithelial cell line (ARPE-19); experiment: Cytoprotective activity against blue light-induced apoptosis of A2E-accumulated ARPE-19 cells (MTT assay); assay type: cell-based; conditions: A2E-accumulated ARPE-19 exposed to blue light; for increase of cell viability: compared to the negative control
From the text: The retinal pigment cell line used in experiments and analyses of the present invention arose from a retinal pigment epithelial cell line (ARPE-19: ATCC no. CRL-2302) purchased from the ATCC (American Type Culture Collection, Manassas Va.), and was maintained by passage as described in document (Sparrow, J. R. et al., A2E, alipofuscin fluorophore, in human retinal pigmented epithelial cells in culture. Invest Ophthalmol Vis Sci 1999, 40(12), 2988-95).
Briefly, the retinal pigment cell line was cultured in Dulbecco's modified Eagle's medium (DMEM, Gibco, USA) supplemented with antibiotics (Gibco, USA) including 100 U/ml penicillin, […] streptomycin, and amphotericin B, and 10% fetal bovine serum (Hyclone, USA) at 37° C. under 5% CO2 conditions. The cells were allowed to adhere to the bottom of the culture plate, and cultured, with passage by treatment with a mixture of 1:4 trypsin:10% fetal bovine serum (Gibco, USA)-supplemented medium upon confluence.
For use in experiments, the cells were seeded at a density of 5×10^4 cells/well into 6-well plates.
Cytoprotective Activity of S-Allyl-Cysteine Against Blue Light-Induced Apoptosis of A2E-Accumulated Human Retinal Pigment Epithelial Cell Line CARPE-19)
Human retinal pigment cell line (ARPE-19) was seeded at a density of 5×10^4 cells/well into 96-well plates, and incubated with 20 μM A2E for 7 days to accumulate A2E. Then, the cells were treated with a negative control, a positive control (lutein: 20 μM), or predetermined concentrations of S-allyl-cysteine (1, 10, 100 μM) before exposure to blue light as described above.
Thereafter, cell viability was measured using 3-(4,5-dimethylthiazol-2-yl)-2,5-diphenyltetrazoliumbromide (MTT) assay. An MTT assay is a standard colorimetric assay for assessing cell viability, usually in a lab. Generally, viable cells are counted using a hemocytometer, or by measuring optical density; however, this method requires too much time and labor for large numbers of cells, and is apt to yield inaccurate results. As an alternative, the MTT assay is designed such that the yellow substrate tetrazolium MTT is reduced by metabolically active cells, in part by the action of mitochondrial dehydrogenase enzymes, into purple formazan that can be solubilized and quantified by spectrophotometric means. This assay can analyze the proliferation behavior of large numbers of cells rapidly and accurately. […] More viable cells produce a greater amount of formazan crystals, recoding higher absorbance.
According to the MTT assay (Sigma-Aldrich Inc., St. Louis, Mo., U.S.A.), DMEM containing 0.5 mg/ml MTT was added to each well and incubated at 37° C. for 2 hrs in an incubator under dark conditions. […]

[2] = Suppressive activity against blue light-induced oxidation of A2E (cell-free, absorbance); conditions: 20 μM A2E in PBS, blue light ca. 430 nm, compared to non-treated
Experimental: Assay of S-Allyl-Cysteine for Suppressive Activity Against Blue Light-Induced Oxidation of A2E S-Allyl-cysteine was assayed for the ability to suppress the blue light-induced oxidation of A2E. First, 100 μM A2E was diluted to 20 μM in phosphate buffered saline (PBS), and 200 μl of the dilution was placed in each well of 96-well plates. Then, a negative control, a positive control (lutein 20 μM), or predetermined concentrations of S-allyl-cysteine (1, 10, 100 μM) were added to the dilution, and mixed by pipetting. An LED lamp emitting blue light with a central wavelength of ca. 430 nm was operated above the microplates to induce photo-oxidation until the A2E absorbance was reduced by half. Absorbance was read on an ELISA before and after the induction of photo-oxidation. The measurements were applied to an A2E standard curve to obtain concentrations of A2E, and the difference in concentration before and after exposure to blue light was used to obtain the concentration of oxidized A2E. From the data, the inhibitory activity of the sample against A2E photo-oxidation was calculated according to the following Mathematical Formula 1. In Formula 1, Abs. means absorbance. [formula] A=Abs. of A2E−Abs. of A2E+blue light B={Abs. of A2E+sample)−Abs. of sample}−{(Abs. of A2E+sample+blue light)−(Abs. of sample−Abs. of sample+blue light)} In order to evaluate the inhibitory activity of S-allyl-L-cysteine against A2E photooxidation, concentrations of oxidized A2E were measured after exposure to blue radiation as described in Experimental Example 1, and the results are depicted in FIG. 1.

Compound	cell viability versus negative control (result in words) ([1]; lutein 20 μM)	decrease of concentration of oxidized A2E ([2]; 1 μM S-allyl-cysteine)	decrease of concentration of oxidized A2E ([2]; 10 μM S-allyl-cysteine)	decrease of concentration of oxidized A2E ([2]; 100 μM S-allyl-cysteine)	increase of cell viability ([1]; 1 μM)	increase of cell viability ([1]; 10 μM)	increase of cell viability ([1]; 100 μM)
CC1=C[C@H](O)CC(C)(C)[C@H]1/C=C/C(C)=C/C=C/C(C)=C/C=C/C=C(C)/C=C/C=C(C)/C=C/C1=C(C)C[C@@H](O)CC1(C)C [positive control, lutein, reference compound]	significant difference in cell viability						
C=CCSC[C@H](N)C(=O)O [S-allyl-cysteine, S-allyl-L-cysteine]		20%	32%	41%	63%	134%	167%
